Reference: ChEMBL document CHEMBL4376882, “Photodynamic Therapy for ras-Driven Cancers: Targeting G-Quadruplex RNA Structures with Bifunctional Alkyl-Modified Porphyrins” (J Med Chem, 2020)
Calls of active or inactive are those of the source. The calls are words filed in the database; no cut-off is given here.

How the values were obtained:
[1] = test system: Quadruplex DNA; assay: Binding affinity to human KRAS utr-z RNA g-quadruplex assessed as compound-RNA complex stoichiometry ratio of 4:1 by Job's plot analysis; assay type: nucleic-acid assay
[2] = Binding affinity to 20-mer stem-loop RNA (unknown origin) assessed as compound-RNA complex stoichiometry ratio of 2:1 by Job's plot analysis
[3] = test system: Quadruplex DNA; assay: Binding affinity to human KRAS utr-z RNA g-quadruplex assessed as compound-RNA complex stoichiometry ratio of 1:1 by Job's plot analysis; assay type: nucleic-acid assay
[4] = test system: PANC-1; assay: Cytotoxicity against human PANC1 cells assessed as reduction in metabolic activity at 20 nM after 24 to 72 hrs in dark followed by photoirradiation in presence of NADH by resazurin assay; assay type: functional, cell-based
[5] = Drug uptake in mouse NIH/3T3 cells at 5 uM and 4 degree C after 16 hrs by FACS analysis relative to 37 degree C; assay type: ADME, cell-based; conditions: nih3t3, 16 h
[6] = molecular target: Quadruplex DNA; assay: Binding affinity to NRAS RNA g-quadruplex (unknown origin) by fluorescence spectroscopy; assay type: nucleic-acid assay
[7] = molecular target: Quadruplex DNA; assay: Binding affinity to human KRAS utr-1 RNA g-quadruplex by fluorescence spectroscopy; assay type: nucleic-acid assay
[8] = molecular target: Quadruplex DNA; assay: Binding affinity to human KRAS utr-c RNA g-quadruplex by fluorescence spectroscopy; assay type: nucleic-acid assay
[9] = molecular target: Quadruplex DNA; assay: Binding affinity to human KRAS utr-z RNA g-quadruplex by fluorescence spectroscopy; assay type: nucleic-acid assay
[10] = Aggregation property of compound at > 40 degree C; assay type: physicochemical
[11] = Binding affinity to NRAS RNA g-quadruplex (unknown origin) at 40 degree C by SPR analysis; assay type: nucleic-acid assay
[12] = molecular target: Quadruplex DNA; assay: Binding affinity to human KRAS utr-z RNA g-quadruplex at 40 degree C by SPR analysis; assay type: nucleic-acid assay
[13] = test system: Quadruplex DNA; assay: Binding affinity to human KRAS utr-z RNA g-quadruplex assessed as compound-RNA complex stoichiometry ratio of 9:1 by Job's plot analysis; assay type: nucleic-acid assay
[14] = Drug uptake in human PANC1 cells at 5 uM after 16 hrs by FACS analysis; assay type: ADME, cell-based; conditions: panc-1, 16 h
[15] = Drug uptake in human PANC1 cells at 5 uM after 2 hrs by FACS analysis; assay type: ADME, cell-based; conditions: panc-1, 2 h
[16] = Drug localization in cytoplasm of human PANC1 cells at 5 uM after 6 hrs by Hoechst staining based confocal microscopy; assay type: ADME, subcellular; conditions: panc-1, 6 h
[17] = Drug uptake in human PANC1 cells in presence of dynamin-inhibitor dynasore; assay type: ADME, cell-based; conditions: panc-1
[18] = Drug uptake in human PANC1 cells at 5 uM and 4 degree C after 16 hrs by FACS analysis relative to 37 degree C; assay type: ADME, cell-based; conditions: panc-1, 16 h
[19] = Drug uptake in human HEK293 cells at 5 uM and 4 degree C after 16 hrs by FACS analysis relative to 37 degree C; assay type: ADME, cell-based; conditions: hek293, 16 h
[20] = molecular target: GTPase KRas (Homo sapiens) (UniProt P01116); assay: Inhibition of KRAS in human PANC1 cells assessed as decrease in KRAS mRNA level at 15 nM followed by 7.2 J/cm2 irradiation after 4 hrs by qRT-PCR analysis; assay type: cell-based
Chain of GTPase KRas (Homo sapiens) (P01116 whole entry, looked up): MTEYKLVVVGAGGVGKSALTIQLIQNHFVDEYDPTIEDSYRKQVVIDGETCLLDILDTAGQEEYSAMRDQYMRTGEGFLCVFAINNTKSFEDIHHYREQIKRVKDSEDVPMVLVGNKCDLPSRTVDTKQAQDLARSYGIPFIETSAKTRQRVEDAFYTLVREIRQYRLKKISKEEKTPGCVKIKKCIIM

[21] = molecular target: GTPase NRas (Homo sapiens) (UniProt P01111); assay: Inhibition of NRAS in human PANC1 cells assessed as decrease in NRAS mRNA level at 15 nM followed by 7.2 J/cm2 irradiation after 4 hrs by qRT-PCR analysis; assay type: cell-based
Chain of GTPase NRas (Homo sapiens) (P01111 whole entry): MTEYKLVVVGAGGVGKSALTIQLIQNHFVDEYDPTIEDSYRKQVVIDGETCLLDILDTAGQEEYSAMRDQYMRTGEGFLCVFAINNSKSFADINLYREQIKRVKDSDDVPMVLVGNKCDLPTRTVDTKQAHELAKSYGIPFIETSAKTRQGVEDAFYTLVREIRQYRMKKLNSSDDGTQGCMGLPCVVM

[22] = molecular target: GTPase KRas (Homo sapiens) (UniProt P01116); assay: Inhibition of KRAS in human PANC1 cells assessed as downregulation of KRAS expression at 15 nM followed by 7.2 J/cm2 irradiation after 4 hrs by Western blot analysis (reference value: 5 %); assay type: cell-based
[23] = molecular target: GTPase NRas (Homo sapiens) (UniProt P01111); assay: Inhibition of NRAS in human PANC1 cells assessed as downregulation of NRAS expression at 15 nM followed by 7.2 J/cm2 irradiation after 4 hrs by Western blot analysis (reference value: 25 %); assay type: cell-based
[24] = molecular target: GTPase KRas (Homo sapiens) (UniProt P01116); assay: Inhibition of KRAS in human PANC1 cells assessed as downregulation of KRAS expression at 15 nM after 4 hrs by Western blot analysis; assay type: cell-based
[25] = molecular target: GTPase NRas (Homo sapiens) (UniProt P01111); assay: Inhibition of NRAS in human PANC1 cells assessed as downregulation of NRAS expression at 15 nM after 4 hrs by Western blot analysis; assay type: cell-based
[26] = test system: PANC-1; assay: Cytotoxicity against human PANC1 cells assessed as reduction in metabolic activity after 48 hrs in dark followed by photoirradiation in presence of NADH by resazurin assay; assay type: functional, cell-based; conditions: PANC-1, light or radiation study
[27] = test system: MIA PaCa-2; assay: Cytotoxicity against human MIAPaCa2 cells harboring G12C point mutation assessed as reduction in metabolic activity after 48 hrs in dark followed by photoirradiation in presence of NADH by resazurin assay; assay type: functional, cell-based
[28] = test system: HEK293; assay: Cytotoxicity against human HEK293 cells assessed as reduction in metabolic activity after 24 to 72 hrs in dark followed by photoirradiation in presence of NADH by resazurin assay; assay type: ADME, cell-based
[29] = test system: PANC-1; assay: Cytotoxicity against human PANC1 cells assessed as reduction in metabolic activity at 20 nM after 24 to 72 hrs in dark followed by photoirradiation in presence of NADH and NAC by resazurin assay; assay type: functional, cell-based
[30] = test system: PANC-1; assay: Induction of apoptosis in human PANC1 cells assessed as viable cells at 5 nM and photoirradiated at 7.2 J/cm2 measured after 6 to 24 hrs by annexin-V-propidium iodide staining based FACScalibur flow cytometry analysis (reference value: 85.5 %); assay type: functional; conditions: PANC-1, light or radiation study, read-out: Activity
[31] = test system: PANC-1; assay: Induction of apoptosis in human PANC1 cells assessed as early apoptotic cells at 5 nM and photoirradiated at 7.2 J/cm2 measured after 6 to 24 hrs by annexin-V-propidium iodide staining based FACScalibur flow cytometry analysis (reference value: 7.8 %); assay type: functional
[32] = test system: PANC-1; assay: Induction of apoptosis in human PANC1 cells assessed as late apoptotic cells at 5 nM and photoirradiated at 7.2 J/cm2 measured after 6 to 24 hrs by annexin-V-propidium iodide staining based FACScalibur flow cytometry analysis (reference value: 3.6 %); assay type: functional
[33] = test system: PANC-1; assay: Induction of apoptosis in human PANC1 cells assessed as necrotic cells at 5 nM and photoirradiated at 7.2 J/cm2 measured after 6 to 24 hrs by annexin-V-propidium iodide staining based FACScalibur flow cytometry analysis (reference value: 3.2 %); assay type: functional
[34] = test system: PANC-1; assay: Induction of apoptosis in human PANC1 cells assessed as viable cells at 10 nM and photoirradiated at 7.2 J/cm2 measured after 6 to 24 hrs by annexin-V-propidium iodide staining based FACScalibur flow cytometry analysis (reference value: 85.5 %); assay type: functional; conditions: PANC-1, light or radiation study, read-out: Activity
[35] = test system: PANC-1; assay: Induction of apoptosis in human PANC1 cells assessed as early apoptotic cells at 10 nM and photoirradiated at 7.2 J/cm2 measured after 6 to 24 hrs by annexin-V-propidium iodide staining based FACScalibur flow cytometry analysis (reference value: 7.8 %); assay type: functional
[36] = test system: PANC-1; assay: Induction of apoptosis in human PANC1 cells assessed as late apoptotic cells at 10 nM and photoirradiated at 7.2 J/cm2 measured after 6 to 24 hrs by annexin-V-propidium iodide staining based FACScalibur flow cytometry analysis (reference value: 3.6 %); assay type: functional
[37] = test system: PANC-1; assay: Induction of apoptosis in human PANC1 cells assessed as necrotic cells at 10 nM and photoirradiated at 7.2 J/cm2 measured after 6 to 24 hrs by annexin-V-propidium iodide staining based FACScalibur flow cytometry analysis (reference value: 3.2 %); assay type: functional
[38] = test system: PANC-1; assay: Induction of apoptosis in human PANC1 cells assessed as viable cells at 15 nM and photoirradiated at 7.2 J/cm2 measured after 6 to 24 hrs by annexin-V-propidium iodide staining based FACScalibur flow cytometry analysis (reference value: 85.5 %); assay type: functional; conditions: PANC-1, light or radiation study, read-out: Activity
[39] = test system: PANC-1; assay: Induction of apoptosis in human PANC1 cells assessed as early apoptotic cells at 15 nM and photoirradiated at 7.2 J/cm2 measured after 6 to 24 hrs by annexin-V-propidium iodide staining based FACScalibur flow cytometry analysis (reference value: 7.8 %); assay type: functional
[40] = test system: PANC-1; assay: Induction of apoptosis in human PANC1 cells assessed as late apoptotic cells at 15 nM and photoirradiated at 7.2 J/cm2 measured after 6 to 24 hrs by annexin-V-propidium iodide staining based FACScalibur flow cytometry analysis (reference value: 3.6 %); assay type: functional
[41] = test system: PANC-1; assay: Induction of apoptosis in human PANC1 cells assessed as necrotic cells at 15 nM and photoirradiated at 7.2 J/cm2 measured after 6 to 24 hrs by annexin-V-propidium iodide staining based FACScalibur flow cytometry analysis (reference value: 3.2 %); assay type: functional
[42] = test system: PANC-1; assay: Induction of apoptosis in human PANC1 cells assessed as cleavage of PARP1 when photoirradiated at 7.2 J/cm2 by Western blot analysis; assay type: functional, cell-based
[43] = test system: PANC-1; assay: Induction of apoptosis in human PANC1 cells assessed as cleavage of caspase 3 when photoirradiated at 7.2 J/cm2 by Western blot analysis; assay type: functional, cell-based
[44] = test system: PANC-1; assay: Induction of apoptosis in human PANC1 cells assessed as cleavage of caspase 7 when photoirradiated at 7.2 J/cm2 by Western blot analysis; assay type: functional, cell-based

For `C[n+]1ccc(-c2c3nc(c(-c4cc[n+](C)cc4)c4ccc([nH]4)c(-c4cc[n+](C)cc4)c4ccc([nH]4)c(-c4cc[n+](C)cc4)c4nc2C=C4)C=C3)cc1`, the Activity [1] was “Active”, the Activity [2] was “Active” and the Activity [3] was “Active”.

With `CCCCCCCCCCCCCCCCCC[n+]1ccc(-c2c3nc(c(-c4cc[n+](C)cc4)c4ccc([nH]4)c(-c4cc[n+](C)cc4)c4nc(c(-c5cc[n+](C)cc5)c5ccc2[nH]5)C=C4)C=C3)cc1.[I-].[I-].[I-].[I-]` the Activity [4] was “Active”, the Drug uptake [5] was “Active” and the Kd [6] was 32 nM. The Kd [7] was 150 nM, the Kd [8] was 188 nM and the Kd [9] was 99 nM. The Activity [10] was “Active”, the Kd [11] was 56 to 98 nM and the Kd [12] was 82 to 202 nM. The Activity [13] was “Active”, the Drug uptake [14] was “Active” and the Drug uptake [15] was “Active”. For the same compound, the Drug uptake [16] was “Active”, the Drug uptake [17] was “Not Active” and the Drug uptake [18] was 47%. The Drug uptake [19] was “Active”, the inhibition [20] was “Active” and the inhibition [21] was “Active”. The inhibition [22] was 20%, the inhibition [23] was 50% and the inhibition [24] was “inactive”. The inhibition [25] was “inactive”, the EC50 [26] was 16.4 nM and the Activity [27] was “Active”. The Activity [28] was “Non-Toxic”, the Activity [29] was “inactive” and the viability at 0.005 µM [30] was 78.2%. For the same compound, the Activity [31] was 7.35%, the Activity [32] was 12.4% and the Activity [33] was 2.1%. The viability at 0.01 µM [34] was 81.5%, the Activity [35] was 3.03% and the Activity [36] was 11.43%. For the same compound, the Activity [37] was 4.03%, the viability at 0.015 µM [38] was 75.1% and the Activity [39] was 3.53%. For the same compound, the Activity [40] was 15.63%, the Activity [41] was 5.77% and the Activity [42] was “Active”. The Activity [43] was “Active” and the Activity [44] was “Active”.
